Data from the NIST ThermoML archive (doi:10.1016/j.tca.2015.08.013).

Conditions: for surface tension liquid-gas: Drop volume; for mass density / kinematic viscosity / speed of sound / vapor or sublimation pressure: Liquid; for mass density: Vibrating tube method; for kinematic viscosity / speed of sound: 101.33 kPa; for kinematic viscosity: Capillary tube (Ostwald / Ubbelohde) method; for speed of sound: Sing-around technique in a fixed-path interferometer; for vapor or sublimation pressure: Ebulliometric method (Recirculating still)

Cc1ccco1 [2-methylfuran]
Conditions | kinematic viscosity [m2/s] | speed of sound [m/s] | surface tension liquid-gas [mN/m] | vapor or sublimation pressure [kPa]
278.15 K | 5.39e-07 | 1254.8 | 27.02 | –
280.65 K | 5.23e-07 | 1243.4 | 26.6 | –
283.15 K | 5.08e-07 | 1231.9 | 26.29 | –
285.37 K | – | – | – | 12.57
285.65 K | 4.93e-07 | 1220.4 | 26 | –
286.86 K | – | – | – | 13.65
288.15 K | 4.79e-07 | 1209 | 25.69 | –
289.1 K | – | – | – | 15.22
290.65 K | 4.66e-07 | 1197.5 | 25.26 | –
291.81 K | – | – | – | 17.26
293.15 K | 4.55e-07 | 1186 | 24.98 | –
293.4 K | – | – | – | 18.52
294.3 K | – | – | – | 19.48
295.65 K | 4.46e-07 | 1174.6 | 24.66 | –
295.86 K | – | – | – | 20.63
297.45 K | – | – | – | 22.34
298.15 K | 4.38e-07 | 1163.2 | 24.34 | –
299.76 K | – | – | – | 24.68
300.65 K | 4.29e-07 | 1151.9 | 24.03 | –
300.83 K | – | – | – | 25.8
303.15 K | 4.2e-07 | 1140.6 | 23.71 | –
303.45 K | – | – | – | 28.68
305.13 K | – | – | – | 30.8
305.65 K | 4.11e-07 | 1129.3 | 23.41 | –
307.42 K | – | – | – | 33.94
308.15 K | 4.01e-07 | 1118.1 | 23.06 | –

Conditions | mass density [kg/m3]
278.15 K, 99 kPa | 934.034
280.65 K, 99 kPa | 931.092
283.15 K, 99 kPa | 928.13
283.15 K, 100 kPa | 928.13
283.15 K, 2500 kPa | 930.56
283.15 K, 5000 kPa | 932.75
283.15 K, 7500 kPa | 935.07
283.15 K, 10000 kPa | 937.27
283.15 K, 20000 kPa | 945.74
283.15 K, 30000 kPa | 953.37
283.15 K, 40000 kPa | 960.5
283.15 K, 50000 kPa | 967.21
283.15 K, 60000 kPa | 973.54
285.65 K, 99 kPa | 925.161
288.15 K, 99 kPa | 922.181
288.15 K, 100 kPa | 922.18
288.15 K, 2500 kPa | 924.54
288.15 K, 5000 kPa | 926.97
288.15 K, 7500 kPa | 929.48
288.15 K, 10000 kPa | 931.62
288.15 K, 20000 kPa | 940.4
288.15 K, 30000 kPa | 948.28
288.15 K, 40000 kPa | 955.59
288.15 K, 50000 kPa | 962.35
288.15 K, 60000 kPa | 968.84
290.65 K, 99 kPa | 919.197
293.15 K, 99 kPa | 916.198
293.15 K, 100 kPa | 916.2
293.15 K, 2500 kPa | 918.63
293.15 K, 5000 kPa | 921.3
293.15 K, 7500 kPa | 923.72
293.15 K, 10000 kPa | 926.09
293.15 K, 20000 kPa | 934.94
293.15 K, 30000 kPa | 943.1
293.15 K, 40000 kPa | 950.59
293.15 K, 50000 kPa | 957.61
293.15 K, 60000 kPa | 964.27
295.65 K, 99 kPa | 913.193
298.15 K, 99 kPa | 910.179
298.15 K, 100 kPa | 910.18
298.15 K, 2500 kPa | 912.71
298.15 K, 5000 kPa | 915.3
298.15 K, 7500 kPa | 918
298.15 K, 10000 kPa | 920.32
298.15 K, 20000 kPa | 929.72
298.15 K, 30000 kPa | 937.91
298.15 K, 40000 kPa | 945.67
298.15 K, 50000 kPa | 952.89
298.15 K, 60000 kPa | 959.58
300.65 K, 99 kPa | 907.155
303.15 K, 99 kPa | 904.121
303.15 K, 100 kPa | 904.12
303.15 K, 2500 kPa | 906.73
303.15 K, 5000 kPa | 909.46
303.15 K, 7500 kPa | 912.07
303.15 K, 10000 kPa | 914.76
303.15 K, 20000 kPa | 924.23
303.15 K, 30000 kPa | 932.75
303.15 K, 40000 kPa | 940.68
303.15 K, 50000 kPa | 948.03
303.15 K, 60000 kPa | 955.1
305.65 K, 99 kPa | 901.077
308.15 K, 99 kPa | 898.02
308.15 K, 100 kPa | 898.02
308.15 K, 2500 kPa | 900.91
308.15 K, 5000 kPa | 903.72
308.15 K, 7500 kPa | 906.43
308.15 K, 10000 kPa | 909.05
308.15 K, 20000 kPa | 918.85
308.15 K, 30000 kPa | 927.65
308.15 K, 40000 kPa | 935.68
308.15 K, 50000 kPa | 943.2
308.15 K, 60000 kPa | 950.35
